From US20240043435A1, “TYK-2 INHIBITOR” (BEIGENE, LTD., priority 2020, published 2024)
pIC50: −log10 of the molar value.

Experiments:
[1] = target: T1, TYK2-JH2 (aa 575-869, in-house) protein (Homo sapiens, UniProt P29597); test: TYK2-JH2 biochemical assay (HTRF probe displacement); format: binding; conditions: Biochemical assay; read-out: TYK2-JH2 IC50
T1 construct: TYK2-JH2 (aa 575-869, in-house) protein; made in house
Method in brief: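 HTRF probe-displacement format: compound dilutions (10 points, 5-fold, from 500 uM in DMSO at 500×) were combined with 0.2 nM TYK2-JH2 protein for 0.5 h at room temperature in HEPES pH 7.5 buffer with MgCl2, BSA, DTT and Brij-35. Percent inhibition came from the 615/665 nm fluorescence ratio, fitted to a four-parameter logistic for IC50.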

[2] = test system: JAK2, TYK2/p-STAT4 (Tyr693) activated by IL-12 in NK-92 cell line; test: IL-12-JAK2, TYK2/p-STAT4 (Tyr693) inhibition IC50 cellular assay; format: cell-based; conditions: for Selectivity fold (TYK2/JAK2): Cellular assay, pSTAT5/GM-CSF IC50 vs pSTAT4/IL-12 IC50; for pIC50: NK92, Cellular assay, read-out: pSTAT4/IL-12 IC50
Description: Assay C: IL-12-JAK2, TYK2/p-STAT4 (Tyr693) Inhibition IC50 Cellular Assay
To evaluate the inhibition effect of compounds disclosed herein on JAK2, TYK2/p-STAT4 (Tyr693) activated by IL-12 in NK-92 cell line, NK-92 cells were collected and washed 3 times by DPBS and resuspended in MEM-α (GIBCO, Cat #12561056) with 10% FBS (Gibco, Cat #10099, Lot #1891605), without IL-2 (R&D systems, Cat #202-IL), starved overnight. Cells were collected and resuspended in 1640 medium (phenol red free, Gibco, Cat #11835-030) with 0.1% BSA, and 12.5 μl/5×10^4/well cell suspension were seeded to the 96-well plate (Corning, Cat #3799). Then cells were treated with compounds diluted in 0.2% DMSO 1640 medium, at 37° C., 1 h. Dilution is done according to the following protocol: (1) make 500× compounds solution in DMSO from 5 mM by 4-fold dilution, total 8 doses were included; (3) make 2× compounds solution in assay medium by transferring 0.5 μl serial 500× stock solution into 125 μl assay medium; (4) 15 μl of 2× serial solution is added to cells and incubate at 37° C. for 1 h, the final compound conc. is 10000, 2500, 625, 156.25, 39, 9.8, 2.4 and 0.61 nM, respectively. After 1 h, cells were treated with 2.5 μl medium containing IL-12 at 37° C. (R&D systems, Cat #219-IL-005, final conc. 40 ng/ml), 30 min. Following cells were lysed with 7.5 μl lysis buffer at RT, shaking on shaker for 1 h. 10 μL of cell lysate were transferred to a PE 384-well Proxiplate detection plate, and 5 μL of pre-mixed Alphascreen beads were added to each well. Covered the plate with a plate sealer, span 1000 rpm for 1 min, mix, Incubated overnight at room temperature. Read on BMG PheraStar with Alphascreen protocol. IC 50 values were calculated by fitting dependent data to the four-parameter logistic model using dotmatics software. The assay was performed by using AlphaLISA SureFire Ultra p-STAT4 (Tyr693) Assay Kit—High Volume (PE, Cat #ALSU-PST4-A-HV).

pSTAT5/GM-CSF = pSTAT5/GM-CSF cellular assay (JAK2 selectivity); format: cell-based

T1 sequence (P29597 575-869): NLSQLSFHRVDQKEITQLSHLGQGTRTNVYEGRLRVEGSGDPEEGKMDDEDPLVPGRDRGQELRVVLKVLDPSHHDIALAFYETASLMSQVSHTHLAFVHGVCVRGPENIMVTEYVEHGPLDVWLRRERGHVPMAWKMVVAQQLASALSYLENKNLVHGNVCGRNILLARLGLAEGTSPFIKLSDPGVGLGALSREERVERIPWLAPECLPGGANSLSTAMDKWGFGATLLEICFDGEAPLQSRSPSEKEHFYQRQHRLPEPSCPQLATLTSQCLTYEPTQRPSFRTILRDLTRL

pIC50 [1]	pIC50 [2]	pIC50 (pSTAT5/GM-CSF)	SMILES	Selectivity fold (TYK2/JAK2) [2] [fold]
10.47	8.68	< 5.00	COc1ccc(-c2cnc(NC(C)=O)cc2Nc2cc(N3C[C@@H](C)O[C@@H](C)C3)cc(S(C)(=O)=O)n2)nn1 [Example A27, N-(4-((4-((2S,6R)-2,6-dimethylmorpholino)-6-(methylsulfonyl)pyridin-2-yl)amino)-5-(6-methoxypyridazin-3-yl)pyridin-2-yl)acetamide]	>4761
10.48	8.82	< 5.00	COc1ccc(-c2cnc(NC(C)=O)cc2Nc2nc(S(C)(=O)=O)cc3c2OCO3)nn1 [Example A28, N-(5-(6-methoxypyridazin-3-yl)-4-((6-(methylsulfonyl)-[1,3]dioxolo[4,5-c]pyridin-4-yl)amino)pyridin-2-yl)acetamide]	>6578
10.38	9.34	< 5.00	CC(=O)Nc1cc(Nc2cc(C)cc(S(C)(=O)=O)n2)c(-c2ccc(OC(C)C)nn2)cn1 [Example A29, N-(5-(6-isopropoxypyridazin-3-yl)-4-((4-methyl-6-(methylsulfonyl)pyridin-2-yl)amino)pyridin-2-yl)acetamide]	>22123
10.72	8.60	< 5.00	CC(=O)Nc1cc(Nc2cccc(S(N)(=O)=O)n2)c(-c2ccccn2)cn1 [Example B4, N-(4′-((6-sulfamoylpyridin-2-yl)amino)-[2,3′-bipyridin]-6′-yl)acetamide]	>3952
10.80	8.25	< 5.00	CC(=O)Nc1cc(Nc2cc(OCCO)cc(S(C)(=O)=O)n2)c(-c2ccccn2)cn1 [Example B7, N-(4′-((4-(2-hydroxyethoxy)-6-(methylsulfonyl)pyridin-2-yl)amino)-[2,3′-bipyridin]-6′-yl)acetamide]	>1792
10.33	8.77	< 5.00	COCc1ccnc(-c2cnc(NC(C)=O)cc2Nc2cccc(S(C)(=O)=O)n2)c1 [Example B8, N-(4-(methoxymethyl)-4′-((6-(methylsulfonyl)pyridin-2-yl)amino)-[2,3′-bipyridin]-6′-yl)acetamide]	>5952
10.47	9.13	6.21	CC(=O)Nc1cc(Nc2cccc(S(C)(=O)=O)n2)c(-c2ccc(N3CCOC(C)(C)C3)cn2)cn1 [Example B12, N-(5-(2,2-dimethylmorpholino)-4′-((6-(methylsulfonyl)pyridin-2-yl)amino)-[2,3′-bipyridin]-6′-yl)acetamide]	824
10.52	9.29	5.37	CC(=O)Nc1cc(Nc2cc(OC(C)C)cc(S(C)(=O)=O)n2)c(-c2ccc(N3CC4CC3CO4)cn2)cn1 (stereo not shown) [Example B16, N-(5-(2-oxa-5-azabicyclo[2.2.1]heptan-5-yl)-4′-((4-isopropoxy-6-(methylsulfonyl)pyridin-2-yl)amino)-[2,3′-bipyridin]-6′-yl)acetamide]	8366
10.46	8.69	< 5.00	CC(=O)Nc1cc(Nc2cccc(S(C)(=O)=O)n2)c(-c2cc(Cl)c(C(C)(C)O)cn2)cn1 [Example B17, N-(4-chloro-5-(2-hydroxypropan-2-yl)-4′-((6-(methylsulfonyl)pyridin-2-yl)amino)-[2,3′-bipyridin]-6′-yl)acetamide]	>4878
10.44	8.98	< 5.00	COCC1CN(c2ccc(-c3cnc(NC(C)=O)cc3Nc3cc(OC(C)C)cc(S(C)(=O)=O)n3)nc2)CCO1 (stereo not shown) [Example B18, N-(4′-((4-isopropoxy-6-(methylsulfonyl)pyridin-2-yl)amino)-5-(2-(methoxymethyl)morpholino)-[2,3′-bipyridin]-6′-yl)acetamide]	>9523
10.33	9.35	5.60	CC(=O)Nc1cc(Nc2cc(C)cc(S(C)(=O)=O)n2)c(-c2ccc(O[C@H]3CCOC3)cn2)cn1 [Example B21, (S)-N-(4′-((4-methyl-6-(methylsulfonyl)pyridin-2-yl)amino)-5-((tetrahydrofuran-3-yl)oxy)-[2,3′-bipyridin]-6′-yl)acetamide]	5620
10.60	7.90	5.60	CC(=O)Nc1cc(Nc2cc(OCCO)cc(S(C)(=O)=O)n2)c(-c2ccc(OC3CCOC3)cn2)cn1 (stereo not shown) [Example B22, N-(4′-((4-(2-hydroxyethoxy)-6-(methylsulfonyl)pyridin-2-yl)amino)-5-((tetrahydrofuran-3-yl)oxy)-[2,3′-bipyridin]-6′-yl)acetamide]	197
10.40	9.51	6.00	CC(=O)Nc1cc(Nc2cccc(S(C)(=O)=O)n2)c(-c2ccc(OC3CCOC3)cn2)cn1 (stereo not shown) [Example B23, N-(4′-((6-(methylsulfonyl)pyridin-2-yl)amino)-5-((tetrahydrofuran-3-yl)oxy)-[2,3′-bipyridin]-6′-yl)acetamide]	3260
10.57	9.06	6.25	CC(=O)Nc1cc(Nc2cc(C)cc(S(C)(=O)=O)n2)c(-c2ccc(N3C[C@@H](C)O[C@@H](C)C3)cn2)cn1 [Example C1, N-(5-(cis-2,6-dimethylmorpholino)-4′-((4-methyl-6-(methylsulfonyl)pyridin-2-yl)amino)-[2,3′-bipyridin]-6′-yl)acetamide]	639
10.59	9.51	6.02	CC(=O)Nc1cc(Nc2cccc(S(C)(=O)=O)n2)c(-c2ccc(N3C[C@@H](C)O[C@@H](C)C3)cn2)cn1 [Example C2, N-(5-((cis)-2,6-dimethylmorpholino)-4′-((6-(methylsulfonyl)pyridin-2-yl)amino)-[2,3′-bipyridin]-6′-yl)acetamide]	3083
10.49	8.24	< 5.00	CC(=O)Nc1cc(Nc2cccc(S(C)(=O)=O)c2)c(-c2ccc(N3C[C@@H](C)O[C@@H](C)C3)cn2)cn1 [Example C3, N-(5-((cis)-2,6-dimethylmorpholino)-4′-((3-(methylsulfonyl)phenyl)amino)-[2,3′-bipyridin]-6′-yl)acetamide]	>1721
10.47	8.36	< 5.00	CC(=O)Nc1cc(Nc2cc(OC(C)C)cc(S(C)(=O)=O)n2)c(-c2ccc(N3C[C@@H](C)O[C@@H](C)C3)cn2)cn1 [Example C4, N-(5-((cis)-2,6-dimethylmorpholino)-4′-((4-isopropoxy-6-(methylsulfonyl)pyridin-2-yl)amino)-[2,3′-bipyridin]-6′-yl)acetamide]	>2298
10.49	7.66	< 5.00	CC(=O)Nc1cc(Nc2cc(OCC3CC3)cc(S(C)(=O)=O)n2)c(-c2ccc(N3C[C@@H](C)O[C@@H](C)C3)cn2)cn1 [Example C5, N-(4′-((4-(cyclopropylmethoxy)-6-(methylsulfonyl)pyridin-2-yl)amino)-5-((cis)-2,6-dimethylmorpholino)-[2,3′-bipyridin]-6′-yl)acetamide]	>456
10.27	7.58	< 5.00	CC(=O)Nc1cc(Nc2cc(OCC3CC3)cc(S(C)(=O)=O)c2)c(-c2ccc(N3C[C@@H](C)O[C@@H](C)C3)cn2)cn1 [Example C6, N-(4′-((3-(cyclopropylmethoxy)-5-(methylsulfonyl)phenyl)amino)-5-((cis)-2,6-dimethylmorpholino)-[2,3′-bipyridin]-6′-yl)acetamide]	>381
